In EPA's ToxValDB 9.5 (doi:10.2903/j.efsa.2009.298r):
Values after ≈ are worked out from the molar mass of the structure shown.

Tests used:
Apis mellifera = conditions: acute, mortality
Daphnia magna = conditions: chronic/long-term; duration: 21 days; reproduction
Folsomia candida = conditions: chronic/long-term
Tagia sp. = conditions: mortality
Canidae = conditions: oral, Dog Other, organ weight
Allium cepa = conditions: not reported; seedling emergence

CCCCC(C#N)(Cn1cncn1)c1ccc(Cl)cc1 (configuration not stated) [Myclobutanil]
LD50 (Apis mellifera; duration: 72 hours, dermal): > 39.6 µg/piece
LD50 (Apis mellifera; oral, unspecified): > 33.9 µg/piece
LC50 (Colinus virginianus; acute, oral, diet, mortality): > 567 mg/kg-day
LD50 (Colinus virginianus; acute, oral, mortality): 510 mg/kg-day
NOEC (Colinus virginianus; reproduction developmental): 24.2 mg/kg-day
LC50 (Oncorhynchus mykiss; acute, duration: 96 hours, mortality): 2 µg/mL (≈ 6.93 µM)
NOEC (Oncorhynchus mykiss; chronic/long-term, duration: 21 days, growth): 0.2 mg/L
NOEC (Daphnia magna): 1 mg/L
NOEC (Anas platyrhynchos; reproductive): 31.6 mg/kg-day
LC50 (Anas platyrhynchos; short-term, oral, feed, mortality): > 1540 mg/kg-day
LD50 (Rattus norvegicus; acute, oral, M, mortality): 1600 mg/kg-day
NOAEL (Rattus norvegicus; chronic, duration: 2 years, histopathology: nonneoplastic): 2.5 mg/kg-day
NOAEL (Rattus norvegicus; developmental, development): 31 mg/kg-day
NOEL (Rattus norvegicus; reproduction developmental, reproduction): 16 mg/kg-day
NOEC (Folsomia candida): 20.5 mg/kg
LEL (Typhlodromus pyri; acute, duration: 14 days, mortality): 36 g/ha
LEL (Typhlodromus pyri; not reported, reproduction): 36 g/ha
LC50 (Tagia sp.; acute): 250 mg/kg
NOEC (Tagia sp.; chronic/long-term, duration: 28 days): 10.3 mg/kg
NOAEL (Canidae; chronic, duration: 1 years): 3.09 mg/kg-day
NOAEL (Canidae; subchronic, duration: 90 days): 3.09 mg/kg-day
LEL (Allium cepa): > 300 g/ha
